In the NIST ThermoML archive (doi:10.1021/je5009679):

Conditions: Liquid; for viscosity: Concentric cylinders viscometry

CC(=O)[O-].CCCCn1cc[n+](C)c1 [1-butyl-3-methylimidazolium acetate]
101.33 kPa
Conditions	viscosity [mPa·s]
293.15 K	592.3
303.15 K	274.1
313.15 K	142.4
323.15 K	81.88
333.15 K	51.11
343.15 K	33.65
353.15 K	23.51
363.15 K	17.09
373.15 K	12.93

Conditions	mass density [kg/m3]
293.15 K, 101.33 kPa, Vibrating tube method	1053.8
303.15 K, 101.33 kPa, Vibrating tube method	1047.4
311.4 K, 10000 kPa, Bellows volumetry	1046.7
311.4 K, 20000 kPa, Bellows volumetry	1050.8
311.4 K, 30000 kPa, Bellows volumetry	1054.8
311.4 K, 40000 kPa, Bellows volumetry	1058.6
311.4 K, 50000 kPa, Bellows volumetry	1062.3
311.4 K, 60000 kPa, Bellows volumetry	1065.8
311.4 K, 70000 kPa, Bellows volumetry	1069.3
311.4 K, 80000 kPa, Bellows volumetry	1072.7
311.4 K, 90000 kPa, Bellows volumetry	1076
311.4 K, 100000 kPa, Bellows volumetry	1079
311.4 K, 110000 kPa, Bellows volumetry	1082.1
311.4 K, 120000 kPa, Bellows volumetry	1085.1
311.4 K, 130000 kPa, Bellows volumetry	1088.1
311.4 K, 140000 kPa, Bellows volumetry	1090.9
311.4 K, 150000 kPa, Bellows volumetry	1093.7
311.4 K, 160000 kPa, Bellows volumetry	1096.5
311.4 K, 170000 kPa, Bellows volumetry	1099.1
311.4 K, 180000 kPa, Bellows volumetry	1101.9
311.4 K, 190000 kPa, Bellows volumetry	1104.5
311.4 K, 200000 kPa, Bellows volumetry	1107.1
313.15 K, 101.33 kPa, Vibrating tube method	1041.4
323.15 K, 101.33 kPa, Vibrating tube method	1035.4
331.1 K, 10000 kPa, Bellows volumetry	1034.7
331.1 K, 20000 kPa, Bellows volumetry	1039.1
331.1 K, 30000 kPa, Bellows volumetry	1043.3
331.1 K, 40000 kPa, Bellows volumetry	1047.3
331.1 K, 50000 kPa, Bellows volumetry	1051.2
331.1 K, 60000 kPa, Bellows volumetry	1054.9
331.1 K, 70000 kPa, Bellows volumetry	1058.5
331.1 K, 80000 kPa, Bellows volumetry	1062.1
331.1 K, 90000 kPa, Bellows volumetry	1065.2
331.1 K, 100000 kPa, Bellows volumetry	1068.7
331.1 K, 110000 kPa, Bellows volumetry	1071.9
331.1 K, 120000 kPa, Bellows volumetry	1075
331.1 K, 130000 kPa, Bellows volumetry	1078.2
331.1 K, 140000 kPa, Bellows volumetry	1081.1
331.1 K, 150000 kPa, Bellows volumetry	1084
331.1 K, 160000 kPa, Bellows volumetry	1086.8
331.1 K, 170000 kPa, Bellows volumetry	1089.6
331.1 K, 180000 kPa, Bellows volumetry	1092.4
331.1 K, 190000 kPa, Bellows volumetry	1095.1
331.1 K, 200000 kPa, Bellows volumetry	1097.7
333.15 K, 101.33 kPa, Vibrating tube method	1029.5
343.15 K, 101.33 kPa, Vibrating tube method	1023.7
351.3 K, 10000 kPa, Bellows volumetry	1023.2
351.3 K, 20000 kPa, Bellows volumetry	1027.7
351.3 K, 30000 kPa, Bellows volumetry	1032.1
351.3 K, 40000 kPa, Bellows volumetry	1036.4
351.3 K, 50000 kPa, Bellows volumetry	1040.4
351.3 K, 60000 kPa, Bellows volumetry	1044.3
351.3 K, 70000 kPa, Bellows volumetry	1048
351.3 K, 80000 kPa, Bellows volumetry	1051.6
351.3 K, 90000 kPa, Bellows volumetry	1055
351.3 K, 100000 kPa, Bellows volumetry	1058.4
351.3 K, 110000 kPa, Bellows volumetry	1061.7
351.3 K, 120000 kPa, Bellows volumetry	1065
351.3 K, 130000 kPa, Bellows volumetry	1068.1
351.3 K, 140000 kPa, Bellows volumetry	1071.2
351.3 K, 150000 kPa, Bellows volumetry	1074.3
351.3 K, 160000 kPa, Bellows volumetry	1077.3
351.3 K, 170000 kPa, Bellows volumetry	1080.2
351.3 K, 180000 kPa, Bellows volumetry	1083
351.3 K, 190000 kPa, Bellows volumetry	1086
351.3 K, 200000 kPa, Bellows volumetry	1088.5
353.15 K, 101.33 kPa, Vibrating tube method	1017.9
363.15 K, 101.33 kPa, Vibrating tube method	1012
371.3 K, 10000 kPa, Bellows volumetry	1011.7
371.3 K, 20000 kPa, Bellows volumetry	1016.5
371.3 K, 30000 kPa, Bellows volumetry	1021.2
371.3 K, 40000 kPa, Bellows volumetry	1025.5
371.3 K, 50000 kPa, Bellows volumetry	1029.6
371.3 K, 60000 kPa, Bellows volumetry	1033.8
371.3 K, 70000 kPa, Bellows volumetry	1037.7
371.3 K, 80000 kPa, Bellows volumetry	1041.5
371.3 K, 90000 kPa, Bellows volumetry	1045
371.3 K, 100000 kPa, Bellows volumetry	1048.5
371.3 K, 110000 kPa, Bellows volumetry	1051.9
371.3 K, 120000 kPa, Bellows volumetry	1055.3
371.3 K, 130000 kPa, Bellows volumetry	1058.6
371.3 K, 140000 kPa, Bellows volumetry	1061.8
371.3 K, 150000 kPa, Bellows volumetry	1064.9
371.3 K, 160000 kPa, Bellows volumetry	1067.8
371.3 K, 170000 kPa, Bellows volumetry	1071
371.3 K, 180000 kPa, Bellows volumetry	1073.9
371.3 K, 190000 kPa, Bellows volumetry	1076.8
371.3 K, 200000 kPa, Bellows volumetry	1079.5
373.15 K, 101.33 kPa, Vibrating tube method	1006.1
